Source: patent US20260026522A1, “METHODS AND DEVICE FOR CO-TREATMENT OF CROP PROTECTION CHEMICALS WITH PLANT GROWTH REGULATORS” (AGROFRESH INC., priority 2016, published 2026)

Assays:
Botrytis cinerea = assay: Fungicide fogging of wounded, inoculated Red Delicious apples: Botrytis lesion size; format: in vivo, Botrytis cinerea on Red Delicious apples; conditions: measured Day 4
Method: (§1) This experiment was conducted exactly the same as described above in Example 1 unless noted otherwise. For example, instead of Golden Delicious apples, this experiment was performed on Red Delicious apples, which are harvested later in the season than Golden Delicious apples. Freshly harvested Red Delicious apples were wounded on the left and right side with Penicillium and Botrytis fungal pathogens, respectively. After inoculation, the apples remained at 20° C. throughout the remainder of the experimental trial to measure growth of the Botrytis fungal pathogen. Inoculated fruits were separated in preparation for an initial trial which comprised three replicates of 10-fruit cohorts totaling 5.5 kg of Red Delicious apples, respectively (see Table 1).
(§2) In this trial, replicate cohorts of Red Delicious apples were fog treated with 250 μL of the benzoxaborole (BOB) solution, 620 μL of the thiabendazole (TBZ) solution, 410 μL of the pyrimethanil (PYR) solution, or 250 μL of the fludioxonil (FDL) solution, respectively (see Table 1). The fungicide fogging treatment was applied to the Red Delicious apples in the sealed treatment chamber comprising a volume of 1.1 m^3 such that the final concentration of active ingredient (“ai”) of each fungicide applied to the Red Delicious apples during the trial was 4.6 mg/kg of benzoxaborole (BOB), 11.2 mg/kg of thiabendazole (TBZ) solution, 11.8 mg/kg of pyrimethanil (PYR) solution, and 4.6 mg/kg of fludioxonil (FDL), respectively (see Table 1).
(§3) After 24 hours of fungicide treatment in the sealed chamber at 20° C., treated apples were returned back to the closed, controlled environment for storage. As described in Example 1, storage of treated Red Delicious apples occurred for at least 12 hours and for up to approximately 72 hours until Day 4 when fungal lesions on the treated Red Delicious apples were measured (see Table 2).

Penicillium expansum = assay: Fungicide fogging of wounded, inoculated Red Delicious apples: Penicillium lesion size; format: in vivo, Penicillium expansum on Red Delicious apples; conditions: for Fungal Lesion Diameter: Penicillium expansum, measured Day 4; for Inhibition of Penicillium expansum fungal growth compared to untreated and propylene glycol controls / Penicillium expansum lesion sizes, range over treatment days: treated on Days 0-3
Method: as §1, §2, §3
This experiment was conducted exactly the same as described above in Example 2 unless noted otherwise. In particular, freshly harvested Red Delicious apples were wounded on the left and right side with Penicillium and Botrytis fungal pathogens, respectively. After inoculation, the apples remained at 20° C. throughout the remainder of the experimental trial to measure growth of the Penicillium fungal pathogen.

[1] = test system: Penicillium expansum and Botrytis cinerea; assay: Fungicide fogging of wounded, inoculated Golden Delicious apples: fungal lesion size; format: in vivo; conditions: 24 h fog at 20° C., measured Day 3 or 4
Source text: Freshly harvested plants and crops, such as fruit crops (e.g. apple fruits), were wounded and inoculated with fungal pathogens. Immediately after harvest on Day 0, Golden Delicious apples were wounded on the left and/or the right sides of the fruit. The wounds were immediately inoculated with one or more fungal strains. For example, the wounds on the left side of the fruit were inoculated with Penicillium, while the wounds on the right side of the fruit were inoculated with Botrytis. After inoculation, the apples remained at 20° C. throughout the remainder of the experimental trial.
Inoculated fruits were separated in preparation for an experimental trial that comprised three replicates of 10-fruit cohorts each totaling 5.1 kg of Golden Delicious apples (see Table 1). After inoculation, the apples were held at 20° C. in a closed, controlled environment until fungicide treatment. Prior to fungicide treatment, a fruit cohort was removed from the controlled environment and transported to a sealed treatment chamber having a temperature of 20° C. The fruit cohorts were each treated with a single respective fungicide on Day 0 (i.e., day of harvest), as well as Days 1, 2, 3, and/or 4 after harvest (see Table 2).
More specifically, each fruit cohort was treated a single time for 24 hours with a specific fungicide solution comprising the following active ingredients: benzoxaborole (BOB), thiabendazole (TBZ), pyrimethanil (PYR), and fludioxonil (FDL) as described in Table 1 below. The fungicide solutions used to treat inoculated apples comprised the following concentration of active ingredients: a 100 g/L of benzoxaborole (BOB), thiabendazole (TBZ), and fludioxonil (FDL), or a 160 g/L of pyrimethanil (PYR), respectively (see Table 1).
Inoculated fruits were also treated with a propylene glycol-inoculated negative control (GLY IC). This propylene glycol-inoculated control treatment comprised only propylene glycol, a common fungicide treatment carrier, with no active ingredient (see Table 1). In addition, another cohort of inoculated fruits was not treated with a fungicide at all to produce an untreated inoculated control (UNTRT IC).
In this trial, replicate cohorts of Golden Delicious apples were treated by fogging with 167 μL of the benzoxaborole (BOB) solution, 270 μL of the thiabendazole (TBZ) solution, 410 μL of the pyrimethanil (PYR) solution, or 170 μL of the fludioxonil (FDL) solution, respectively (see Table 1). The fungicide fogging treatment was applied to the Golden Delicious apples in the sealed treatment chamber comprising a volume of 1.1 m^3 such that the final concentration of active ingredient (“ai”) of each fungicide applied to the Golden Delicious apples during the trial was 3.3 mg/kg of benzoxaborole (BOB), 8.0 mg/kg of thiabendazole (TBZ) solution, 8.5 mg/kg of pyrimethanil (PYR) solution, and 3.3 mg/kg of fludioxonil (FDL), respectively (see Table 1).
After 24 hours of fungicide treatment in the sealed chamber at 20° C., treated apples were returned back to the closed, controlled environment for storage. Storage of treated fruit occurred for at least 12 hours and for up to approximately 72 hours until Day 3 or Day 4 when fungal lesions on the treated fruit were measured (see Table 2). For example, inoculated fruit cohorts treated with fungicide on Day 0, where returned to the control chamber on Day 1 and stored there for at least 12 hours (e.g., approximately 48-72 hours) until their fungal lesions were measured on Days 3 or 4 (see Table 2). Inoculated fruit cohorts treated with fungicide on Day 1, where returned to the control chamber on Day 2 and stored there for at least 12 hours (e.g., approximately 24-48 hours) until their fungal lesions were measured on Days 3 or 4 (see Table 2). […]

[2] = Fungicide Fog Day 0, 24 h fog at 20° C.
[3] = Fungicide Fog Day 1, 24 h fog at 20° C.
[4] = Fungicide Fog Day 2, 24 h fog at 20° C.
[5] = Fungicide Fog Day 3, 24 h fog at 20° C.
[6] = Fungicide Fog Day 0, Penicillium and Botrytis lesions averaged
[7] = Fungicide Fog Day 1, Penicillium and Botrytis lesions averaged
[8] = Fungicide Fog Day 2, Penicillium and Botrytis lesions averaged

SMILES | Fungal Lesion Diameter (Botrytis cinerea; [2]) [mm] | Fungal Lesion Diameter (Botrytis cinerea; [3]) [mm] | Fungal Lesion Diameter (Botrytis cinerea; [4]) [mm] | Fungal Lesion Diameter (Botrytis cinerea; [5]) [mm] | Fungal Lesion Diameter (Penicillium expansum; [2]) [mm] | Fungal Lesion Diameter (Penicillium expansum; [3]) [mm] | Fungal Lesion Diameter (Penicillium expansum; [4]) [mm] | Fungal Lesion Diameter (Penicillium expansum; [5]) [mm] | Fungal Lesion Diameter [1, 6] [mm] | Fungal Lesion Diameter [1, 7] [mm] | Fungal Lesion Diameter [1, 8] [mm] | Inhibition of Penicillium expansum fungal growth compared to untreated and propylene glycol controls (Penicillium expansum) | Penicillium expansum lesion sizes, range over treatment days (Penicillium expansum)
N#CC1=CN=CC1c1cccc2c1OC(F)(F)O2 (stereo not shown) [FDL, 4-(2,2-difluoro-1,3-benzodioxol-4-yl)-1H-pyrrole-3-carbonitrile] | 4.1 | 7.0 | 8.2 | 11.7 | 11.0 | 13.2 | 13.4 | 15.5 | 1.6 | 2.7 | 3.0 | – | –
Cc1cc(C)nc(Nc2ccccc2)n1 [PYR, 4,6-Dimethyl-N-phenylpyrimidin-2-amine] | 9.2 | 10.4 | 12.4 | 12.5 | 17.2 | 17.1 | 18.3 | 18.3 | 0.4 | 1.3 | 3.6 | Neither treatments comprising pyrimethanil (PYR) nor thiabendazole (TBZ) showed a consistent increase in inhibition of Penicillium expansum fungal growth or any significant difference | 17.1-18.3 mm
c1ccc2[nH]c(-c3cscn3)nc2c1 [TBZ, 4-(1H-1,3-Benzodiazol-2-yl)-1,3-thiazole] | 10.9 | 12.1 | 12.7 | 12.4 | 18.0 | 18.4 | 17.6 | 18.3 | 2.0 | 4.5 | 4.9 | Neither treatments comprising pyrimethanil (PYR) nor thiabendazole (TBZ) showed a consistent increase in inhibition of Penicillium expansum fungal growth or any significant difference | 17.6-18.4 mm
